In US10329294B2, “Pyrazolopyrimidine inhibitors of IRAK4 activity” (MERCK SHARP & DOHME CORP., priority 2015, dated 2019) one finds IC50 data, which are given here for 28 compounds.

Structures can show the parent of a compound that is named as a salt.

Chain of IRAK4 (Q9NWZ3 whole entry): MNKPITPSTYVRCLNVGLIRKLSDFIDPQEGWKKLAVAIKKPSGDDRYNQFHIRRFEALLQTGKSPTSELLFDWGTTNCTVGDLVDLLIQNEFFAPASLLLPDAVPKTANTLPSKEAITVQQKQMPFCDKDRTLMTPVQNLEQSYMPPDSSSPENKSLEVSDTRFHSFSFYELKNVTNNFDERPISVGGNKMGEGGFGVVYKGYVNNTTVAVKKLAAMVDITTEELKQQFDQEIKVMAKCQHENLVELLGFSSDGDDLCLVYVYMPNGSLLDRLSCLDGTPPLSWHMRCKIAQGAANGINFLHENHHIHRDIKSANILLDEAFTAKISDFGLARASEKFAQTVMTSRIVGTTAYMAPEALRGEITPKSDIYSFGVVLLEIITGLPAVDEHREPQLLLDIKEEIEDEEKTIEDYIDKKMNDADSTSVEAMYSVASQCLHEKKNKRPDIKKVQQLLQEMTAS

The first experiment addresses IRAK4 (Homo sapiens (Human), UniProt Q9NWZ3). Put plainly: IRAK4 Kinase Assay. The format is biochemical. Conditions: IMAP fluorescence polarization, 0.5 nM GST tagged IRAK4, 100 μM ATP, 30 minutes at 25° C.; read-out: IRAK4 IC50.
As for `O=C(Nc1ccsc1Br)c1cnn2ccc(N[C@@H]3CCCC[C@@H]3O)nc12` [Example 196, N-(2-bromothiophen-3-yl)-5-{[(1R,2S)-2-hydroxycyclohexyl]amino} pyrazolo[1,5-a]pyrimidine-3-carboxamide trifluoroacetate], the IC50 (as a rule, the concentration that inhibits the measured activity by half) amounted to 2650 nM.

Consider `CC(C)n1cc(NC(=O)c2cnn3ccc(N[C@@H]4CCCC[C@@H]4O)nc23)c(C(F)F)n1` [Example 199, N-[3-(difluoromethyl)-1-(1-methylethyl)-1H-pyrazol-4-yl]-5-{[(1R,2S)-2-hydroxycyclohexyl]amino} pyrazolo[1,5-a]pyrimidine-3-carboxamide], for which the half-inhibitory concentration (IC50) stood at 9 nM.

For the compound `CC(C)n1cc(NC(=O)c2cnn3ccc(N[C@@H]4CCCC(F)(F)[C@@H]4N)nc23)c(C(F)F)n1` [Example 200, 5-{[(1R,2R)-2-amino-3,3-difluorocyclohexyl]amino}-N-[3-(difluoromethyl)-1-(1-methylethyl)-1H-pyrazol-4-yl]pyrazolo[1,5-a]pyrimidine-3-carboxamide trifluoroacetate], the IC50 turned out to be 36 nM.

For `Cn1cc(NC(=O)c2cnn3ccc(N4CC[C@@H]5C[C@H]4CN5)nc23)c(C(F)(F)F)n1` [Example 213, 5-[(1S,5R)-2,6-diazabicyclo[3.2.1]oct-2-yl]-N-[1-methyl-3-(trifluoromethyl)-1H-pyrazol-4-yl]pyrazolo[1,5-a]pyrimidine-3-carboxamide], the IC50 stood at 3 nM.

For the compound `Cn1cc(NC(=O)c2cnn3ccc(N4C5CNCC4C5)nc23)c(C(F)(F)F)n1` [Example 214, 5-(3,6-diazabicyclo[3.1.1]hept-6-yl)-N-[1-methyl-3-(trifluoromethyl)-1H-pyrazol-4-yl]pyrazolo[1,5-a]pyrimidine-3-carboxamide], the IC50 was 38 nM.

`Cn1cc(NC(=O)c2cnn3ccc(N4CCNCC4C(F)(F)F)nc23)c(C(F)(F)F)n1` (stereo not shown) [Example 215, N-[1-methyl-3-(trifluoromethyl)-1H-pyrazol-4-yl]-5-[2-(trifluoromethyl)piperazin-1-yl]pyrazolo[1,5-a]pyrimidine-3-carboxamide trifluoroacetate]: the 50% inhibitory concentration (IC50) amounted to 121 nM.

Regarding `Cn1cc(NC(=O)c2cnn3ccc(N4CCNCC4(C)C)nc23)c(C(F)(F)F)n1` [Example 216, 5-(2,2-dimethylpiperazin-1-yl)-N-[1-methyl-3-(trifluoromethyl)-1H-pyrazol-4-yl]pyrazolo[1,5-a]pyrimidine-3-carboxamide trifluoroacetate], the IC50 came to 127 nM.

As for `Cn1cc(NC(=O)c2cnn3ccc(NC4CNCC(F)(F)C4)nc23)c(C(F)(F)F)n1` (stereo not shown) [Example 217, 5-[(5,5-difluoropiperidin-3-yl)amino]-N-[1-methyl-3-(trifluoromethyl)-1H-pyrazol-4-yl]pyrazolo[1,5-a]pyrimidine-3-carboxamide], the IC50 was 47 nM.

On to `Cn1cc(NC(=O)c2cnn3ccc(N4CC5CNC(C5)C4)nc23)c(C(F)(F)F)n1` (stereo not shown) [Example 223, 5-(3,6-diazabicyclo[3.2.1]oct-3-yl)-N-[1-methyl-3-(trifluoromethyl)-1H-pyrazol-4-yl]pyrazolo[1,5-a]pyrimidine-3-carboxamide trifluoroacetate], for which the IC50 stood at 57 nM.

On to `Cn1cc(NC(=O)c2cnn3ccc(N4C5CCC4CNC5)nc23)c(C(F)(F)F)n1` [Example 226, 5-(3,8-diazabicyclo[3.2.1]oct-8-yl)-N-[1-methyl-3-(trifluoromethyl)-1H-pyrazol-4-yl]pyrazolo[1,5-a]pyrimidine-3-carboxamide trifluoroacetate], for which the IC50 amounted to 2 nM.

On to `Cn1cc(NC(=O)c2cnn3ccc(N4CCCNC5(CC5)C4)nc23)c(C(F)(F)F)n1` [Example 227, 5-(4,8-diazaspiro[2.6]non-8-yl)-N-[1-methyl-3-(trifluoromethyl)-1H-pyrazol-4-yl]pyrazolo[1,5-a]pyrimidine-3-carboxamide], for which the IC50 was 451 nM.

In the case of `Cn1cc(NC(=O)c2cnn3ccc(N4C5CCC4CNC5)nc23)c(C(F)F)n1` [Example 229, 5-(3,8-diazabicyclo[3.2.1]oct-8-yl)-N-[3-(difluoromethyl)-1-methyl-1H-pyrazol-4-yl]pyrazolo[1,5-a]pyrimidine-3-carboxamide trifluoroacetate], the IC50 came out at 0.5 nM.

`Cn1cc(NC(=O)c2cnn3ccc(N4CC5CNCC4C5)nc23)c(C(F)F)n1` (stereo not shown) [Example 238, 5-[3,6-diazabicyclo[3.2.1]oct-6-yl]-N-[3-(difluoromethyl)-1-methyl-1H-pyrazol-4-yl]pyrazolo[1,5-a]pyrimidine-3-carboxamide]: the 50% inhibitory concentration (IC50) is 4 nM.

On to `Cn1cc(NC(=O)c2cnn3ccc(N4C[C@@H](N)C[C@H](F)C4)nc23)c(C(F)F)n1` [Example 248, 5-[(3S,5S)-3-amino-5-fluoropiperidin-1-yl]-N-[3-(difluoromethyl)-1-methyl-1H-pyrazol-4-yl]pyrazolo[1,5-a]pyrimidine-3-carboxamide trifluoroacetate], for which the half-maximal inhibitory concentration (IC50) is 0.9 nM.

As to `Cn1cc(NC(=O)c2cnn3ccc(N4C[C@@H](N)C[C@@H](F)C4)nc23)c(C(F)F)n1` [Example 249, 5-[(3S,5R)-3-amino-5-fluoropiperidin-1-yl]-N-[3-(difluoromethyl)-1-methyl-1H-pyrazol-4-yl]pyrazolo[1,5-a]pyrimidine-3-carboxamide trifluoroacetate], the IC50 came out at 1 nM.

`Cn1cc(NC(=O)c2cnn3ccc(N4C[C@H](N)C[C@H](F)C4)nc23)c(C(F)F)n1` [Example 251, 5-[(3R,5S)-3-amino-5-fluoropiperidin-1-yl]-N-[3-(difluoromethyl)-1-methyl-1H-pyrazol-4-yl]pyrazolo[1,5-a]pyrimidine-3-carboxamide trifluoroacetate]: the concentration for half-maximal inhibition (IC50) worked out at 0.7 nM.

As for `Cn1cc(NC(=O)c2cnn3ccc(N4C[C@H](N)C[C@@H](F)C4)nc23)c(C(F)F)n1` [Example 253, 5-[(3R,5R)-3-amino-5-fluoropiperidin-1-yl]-N-[3-(difluoromethyl)-1-methyl-1H-pyrazol-4-yl]pyrazolo[1,5-a]pyrimidine-3-carboxamide trifluoroacetate], the IC50 was determined as 0.5 nM.

`Cn1cc(NC(=O)c2cnn3ccc(N[C@@H]4CNC[C@H](F)C4)nc23)c(C(F)(F)F)n1` [Example 254, 5-(((3S,5R)-5-Fluoropiperidin-3-yl)amino)-N-(1-methyl-3-(trifluoromethyl)-1H-pyrazol-4-yl)pyrazolo[1,5-a]pyrimidine-3-carboxamide]: the 50% inhibitory concentration (IC50) came to 876 nM.

For `Cn1cc(NC(=O)c2cnn3ccc(N[C@@H]4CNC[C@@H](F)C4)nc23)c(C(F)(F)F)n1` [Example 255, 5-{[(3S,5S)-5-fluoropiperidin-3-yl]amino}-N-[1-methyl-3-(trifluoromethyl)-1H-pyrazol-4-yl]pyrazolo[1,5-a]pyrimidine-3-carboxamide], the half-inhibitory concentration (IC50) came to 36 nM.

`Cn1cc(NC(=O)c2cnn3ccc(N[C@@H]4CNC[C@@H](F)C4)nc23)c(C(F)F)n1` [Example 256, N-[3-(difluoromethyl)-1-methyl-1H-pyrazol-4-yl]-5-{[(3S,5S)-5-fluoropiperidin-3-yl]amino}pyrazolo[1,5-a]pyrimidine-3-carboxamide]: the half-maximal inhibitory concentration (IC50) was 8 nM.

Consider `Cn1cc(NC(=O)c2cnn3ccc(N[C@H]4CNC[C@@H](F)C4)nc23)c(C(F)(F)F)n1` [Example 257, 5-{[(3R,5S)-5-fluoropiperidin-3-yl]amino}-N-[1-methyl-3-(trifluoromethyl)-1H-pyrazol-4-yl]pyrazolo[1,5-a]pyrimidine-3-carboxamide hydrochloride], for which the concentration for half-maximal inhibition (IC50) turned out to be 0.6 nM.

Turning to `Cn1cc(NC(=O)c2cnn3ccc(N[C@H]4CNC[C@@H](F)C4)nc23)c(C(F)F)n1` [Example 258, N-[3-(difluoromethyl)-1-methyl-1H-pyrazol-4-yl]-5-{[(3R,5S)-5-fluoropiperidin-3-yl]amino}pyrazolo[1,5-a]pyrimidine-3-carboxamide hydrochloride], the concentration for half-maximal inhibition (IC50) turned out to be 0.5 nM.

As to `Cn1cc(NC(=O)c2cnn3ccc(N[C@@H]4CNC[C@H](F)C4)nc23)c(C(F)F)n1` [Example 259, N-[3-(difluoromethyl)-1-methyl-1H-pyrazol-4-yl]-5-{[(3S,5R)-5-fluoropiperidin-3-yl]amino}pyrazolo[1,5-a]pyrimidine-3-carboxamide], the IC50 turned out to be 156 nM.

`Cn1cc(NC(=O)c2cnn3ccc(N[C@H]4CNC[C@H](F)C4)nc23)c(C(F)(F)F)n1` [Example 260, 5-{[(3R,5R)-5-fluoropiperidin-3-yl]amino}-N-[1-methyl-3-(trifluoromethyl)-1H-pyrazol-4-yl]pyrazolo[1,5-a]pyrimidine-3-carboxamide]: the 50% inhibitory concentration (IC50) was determined as 4 nM.

Regarding `Cn1cc(NC(=O)c2cnn3ccc(N[C@H]4CNC[C@H](F)C4)nc23)c(C(F)F)n1` [Example 261, N-[3-(difluoromethyl)-1-methyl-1H-pyrazol-4-yl]-5-{[(3R,5R)-5-fluoropiperidin-3-yl]amino}pyrazolo[1,5-a]pyrimidine-3-carboxamide trifluoroacetate], the IC50 is 0.5 nM.

Take `CN[C@H]1CCCC[C@H]1Nc1ccn2ncc(C(=O)Nc3cn(C)nc3C(F)(F)F)c2n1` [Example 262, N-(1-Methyl-3-(trifluoromethyl)-1H-pyrazol-4-yl)-5-(((1R,2S)-2-(methylamino)cyclohexyl)amino)pyrazolo[1,5-a]pyrimidine-3-carboxamide]: the IC50 came out at 24 nM.

Staying with this experiment, now noted: IRAK4 IC50 (nM), IMAP fluorescence polarization, 0.5 nM GST tagged IRAK4, 100 μM ATP, 30 minutes at 25° C.
Regarding `Cn1cc(NC(=O)c2cnn3ccc(N4CC5CNCC4COC5)nc23)c(C(F)(F)F)n1` (stereo not shown) [Example 212, 5-(3-Oxa-7,9-diazabicyclo[3.3.2]decan-9-yl)-N-(1-methyl-3-(trifluoromethyl)-1H-pyrazol-4-yl)pyrazolo[1,5-a]pyrimidine-3-carboxamide], the concentration for half-maximal inhibition (IC50) is 9 nM.

In turn, `Cn1cc(NC(=O)c2cnn3ccc(N4CCNC5(CC4)CC5)nc23)c(C(F)(F)F)n1` [Example 220, 5-(4,7-diazaspiro[2.6]non-7-yl)-N-[1-methyl-3-(trifluoromethyl)-1H-pyrazol-4-yl]pyrazolo[1,5-a]pyrimidine-3-carboxamide trifluoroacetate] gave an IC50 of 153 nM.
